Legend:
[1] = tested on: HeLa; experiment: Antitumor activity against human HeLa cells after 3 days by SRB assay; type: functional, cell-based; conditions: 72 h
[2] = tested on: A549; experiment: Antitumor activity against human A549 cells after 3 days by SRB assay; type: functional, cell-based; conditions: A549, 72 h
[3] = tested on: A549; experiment: Potency index, ratio of IC50 for rhein to IC50 for test compound against human A549 cells after 3 days by SRB assay; type: functional
[4] = tested on: HeLa; experiment: Potency index, ratio of IC50 for rhein to IC50 for test compound against human HeLa cells after 3 days by SRB assay; type: functional

| Compound | IC50 [1] [µM] | IC50 [2] [µM] | Ratio IC50 [3] | Ratio IC50 [4] |
| --- | --- | --- | --- | --- |
| O=CN1CCCN(c2nc3cc(O)c4c(c3s2)C(=O)c2cccc(O)c2C4=O)CC1 | 19.7 | 15.2 | – | – |
| CN(C)CCN1CCN(c2nc3cc(O)c4c(c3s2)C(=O)c2cccc(O)c2C4=O)CC1 | > 100 | 32.8 | – | – |
| O=C1c2c(O)cccc2C(=O)c2c1c(O)cc1nc(N3CCN(CCO)CC3)sc21 | 4.5 | 6.5 | – | – |
| CC(C)N(c1nc2cc(O)c3c(c2s1)C(=O)c1cccc(O)c1C3=O)C(C)C | 118 | > 100 | – | – |
| CN1CCN(c2nc3cc(O)c4c(c3s2)C(=O)c2cccc(O)c2C4=O)CC1 | 27.4 | 20.2 | – | – |
| CCCCN(CCCC)CCN1CCN(c2nc3cc(O)c4c(c3s2)C(=O)c2cccc(O)c2C4=O)CC1 | > 100 | 57.1 | – | – |
| CN1CCN(CCN2CCN(c3nc4cc(O)c5c(c4s3)C(=O)c3cccc(O)c3C5=O)CC2)CC1 | 80.1 | 24.2 | – | – |
| CN(CCO)c1nc2cc(O)c3c(c2s1)C(=O)c1cccc(O)c1C3=O | 30.6 | 45.9 | – | – |
| CC(C)N1CCN(CCN2CCN(c3nc4cc(O)c5c(c4s3)C(=O)c3cccc(O)c3C5=O)CC2)CC1 | > 100 | 54 | – | – |
| O=C1c2c(O)cccc2C(=O)c2c1c(O)cc1nc(N3CCCC(O)C3)sc21 (centres undefined) | 26.9 | 21.1 | – | – |
| O=C1c2c(O)cccc2C(=O)c2c1c(O)cc1nc(N3CCCCC3)sc21 | 55.8 | > 100 | – | – |
| CN(CC(O)CO)c1nc2cc(O)c3c(c2s1)C(=O)c1cccc(O)c1C3=O (centres undefined) | 23.2 | 30.4 | – | – |
| O=C1c2c(O)cccc2C(=O)c2c1c(O)cc1nc(N3CCOCC3)sc21 | 30.3 | 33.4 | – | – |
| CCN(CC)c1nc2cc(O)c3c(c2s1)C(=O)c1cccc(O)c1C3=O | 86.7 | 108 | – | – |
| CCOC(=O)N1CCN(c2nc3cc(O)c4c(c3s2)C(=O)c2cccc(O)c2C4=O)CC1 | 68.4 | 54.8 | – | – |
| O=C1c2c(O)cccc2C(=O)c2c1c(O)cc1nc(N3CCN(CCN4CCOCC4)CC3)sc21 | > 100 | > 100 | – | – |

| Compound | IC50 [1] [µM] | IC50 [2] [µM] | Ratio IC50 [3] | Ratio IC50 [4] |
| --- | --- | --- | --- | --- |
| CC(C)N(CCN1CCN(c2nc3cc(O)c4c(c3s2)C(=O)c2cccc(O)c2C4=O)CC1)C(C)C | > 100 | > 100 | – | – |
| O=C1c2c(O)cccc2C(=O)c2c1c(O)cc1nc(N3CCCCCC3)sc21 | 41 | 39.4 | – | – |
| O=C1c2c(O)cccc2C(=O)c2c1c(O)cc1nc(N3CCN(C4CC4)CC3)sc21 | 58.1 | 65.7 | – | – |
| O=C1c2c(O)cccc2C(=O)c2c1c(O)cc1nc(N3CCCC3)sc21 | 44.8 | 148 | – | – |
| O=C(O)c1cc(O)c2c(c1)C(=O)c1cccc(O)c1C2=O [RHEIN] | 92.2 | 95.8 | – | – |
| O=C1c2c(O)cccc2C(=O)c2c1c(O)cc1nc(N3CCN(CCN4CCCCC4)CC3)sc21 | 86.9 | 46.4 | – | – |
| O=C1c2c(O)cccc2C(=O)c2c1c(O)cc1nc(N3CCCCC3CCO)sc21 (centres undefined) | 16.7 | 19.6 | – | – |
| CCN(CC)CCN1CCN(c2nc3cc(O)c4c(c3s2)C(=O)c2cccc(O)c2C4=O)CC1 | > 100 | > 100 | – | – |
| CCN1CCN(CCN2CCN(c3nc4cc(O)c5c(c4s3)C(=O)c3cccc(O)c3C5=O)CC2)CC1 | 71.3 | 23.4 | – | – |
| CC1CCN(c2nc3cc(O)c4c(c3s2)C(=O)c2cccc(O)c2C4=O)CC1 | 60.4 | 66 | – | – |
| CC1CCN(CCN2CCN(c3nc4cc(O)c5c(c4s3)C(=O)c3cccc(O)c3C5=O)CC2)CC1 | 82.1 | 38.2 | – | – |
| CN(C)C1CCN(c2nc3cc(O)c4c(c3s2)C(=O)c2cccc(O)c2C4=O)CC1 | 11.8 | 6.3 | – | – |
| O=C1c2c(O)cccc2C(=O)c2c1c(O)cc1nc(N3CCN(CCN4CCCC4)CC3)sc21 | 81.1 | 70.3 | – | – |
| CCN1CCN(c2nc3cc(O)c4c(c3s2)C(=O)c2cccc(O)c2C4=O)CC1 | 4.3 | 5.4 | 30 | 30 |
| CC(C)N1CCN(c2nc3cc(O)c4c(c3s2)C(=O)c2cccc(O)c2C4=O)CC1 | 14.8 | 15 | – | – |

Source: ChEMBL document CHEMBL3352091, “Natural product-based design, synthesis and biological evaluation of anthra[2,1-d]thiazole-6,11-dione derivatives from rhein as novel antitumour agents” (Eur J Med Chem, 2014)
